Like-named read-outs stand apart in the source and are kept apart here.
Columns and labels:
HIV-1 [1] = test: Inhibition of HIV-1 in MT4 cells; format: cell-based; settings: read-out: HIV1 MT4: EC50 for inhibition of HIV-1 in MT4 cells
Description: (§1) Cells were infected with HIV-1 as previously described [Balzarini et al. AIDS (1991), 5, 21–28]. Briefly, 5×10^5 cells per milliliter were infected with HIV-1 or HIV-2 at 100 CCID50 (50% cell culture infective dose) per milliliter of cell suspension. Then 100 μL of the infected cell suspension was transferred to microtiter plate wells and mixed with 100 μL of the appropriate dilutions of the test compounds. After 4 days giant cell formation was recorded microscopically in the HIV-infected cell cultures [CEM], and after 5 days the number of viable cells was determined by trypan blue staining of the HIV-infected cell cultures [MT4].
(§2) The data columns are, in order: • HIV1 MT4: EC50 in μM for inhibition of HIV-1 in MT4 cells. • HIV2 MT4: EC50 in μM for inhibition of HIV-2 in MT4 cells. • CC50 MT4: CC50 in μM for toxicity to MT-4 cells. • HIV1 CEM: EC50 in μM for inhibition of HIV-1 in CEM cells. • HIV2 CEM: EC50 in μM for inhibition of HIV-2 in CEM cells. • HIV2 CEM-TK-: EC50 in μM for inhibition of HIV-2 in CEM/TK^− cells. • CC50 CEM: CC50 in μM for toxicity to CEM cells. • EC50 MSV: EC50 in μM for inhibition of MSV • MCC MSV: Minimum cytotoxic concentration in MSV assay

HIV-2 [2] = test: Inhibition of HIV-2 in MT4 cells; format: cell-based; settings: read-out: HIV2 MT4: EC50 for inhibition of HIV-2 in MT4 cells
Description: as §1, §2

MT-4 cells = test: Toxicity to MT-4 cells; format: cell-based, human; settings: read-out: CC50 MT4: CC50 for toxicity to MT-4 cells
Description: as §1, §2

HIV-1 [3] = test: microbe, parasite or virus in culture; settings: read-out: HIV1 CEM: EC50 for inhibition of HIV-1 in CEM cells
Summary of the method: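 MT4 or CEM cells at 5×10^5/mL were infected with HIV-1 or HIV-2 at 100 CCID50/mL and cultured with compound dilutions. CEM endpoint: microscopic giant-cell formation after 4 days; MT4 endpoint: viable-cell count by trypan blue after 5 days. EC50 and CC50 in μM.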

HIV-2 [4] = test: Inhibition of HIV-2 in CEM cells (giant cell formation); format: cell-based; settings: read-out: HIV2 CEM: EC50 for inhibition of HIV-2 in CEM cells
Summary of the method: (§3)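 Cells at 5×10^5 per mL were infected with virus at 100 CCID50 per mL and mixed with test compound dilutions. In CEM cultures, giant cell formation was scored microscopically at day 4; in MT-4 cultures, viable cells were counted by trypan blue staining at day 5.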

HIV-2 [5] = test: Inhibition of HIV-2 in CEM/TK- cells; format: cell-based
Summary of the method: as §3

CEM cells = test: Toxicity to CEM cells; format: cell-based, human; settings: Table 6; mean of two or more repeat experiments
Description: as §1, §2

III-B strain of HIV-1 = test: microbe, parasite or virus in culture; format: cell-based; settings: for EC50: HIV1 in C8166 cells, Table 3, read-out: Activity EC50
Description: (§4) C8166 cells. Cells were grown in RPMI 1640 with 10% calf serum. 4×10^4 cells per microtiter plate well were mixed with 5-fold dilutions of compound prior to addition of 10 CCID50 units of III-B strain of HIV-1 and incubated for 5–7 days (Betbeder et al. Antiviral Chem. Chemother. 1, 241–247, 1990). Formation of syncytia was examined from 2 days post-infection. Culture fluid was collected at 5–7 days and gp120 antigen production measured by ELISA (Mahmood and Hay, J. Immunol. Meth., 151, 9–13, 1992). […] Cell viability of infected and uninfected cells were assessed by the MTT-Formazen method (Pauwels et al. J. Virol. Meth. 20, 309–321, 1988).
(§5) Each assay was carried out in duplicate, on at least two separate occasions, and data quoted are the average of each separate assay.

C8166 cells = test: Toxicity in C8166 cells (MTT-Formazen); format: cell-based; settings: Table 3
Description: as §4, §5

[6] = Table 6, mean of two or more repeat experiments
[7] = Table 6, mean of two or more repeat experiments, read-out: HIV2 CEM-TK-: EC50 for inhibition of HIV-2 in CEM/TK^− cells
[8] = CEM/TK- cells, HIV-2, read-out: HIV2 CEM-TK-: EC50 for inhibition of HIV-2 in CEM/TK- cells

Structure (SMILES)	EC50 (HIV-1 [1]; [6])	EC50 (HIV-2 [2]; [6])	CC50 (MT-4 cells; [6])	EC50 (HIV-1 [3]; [6])	EC50 (HIV-2 [4]; [6])	EC50 (HIV-2 [5]; [7])	CC50 (CEM cells)	EC50 (HIV-1 [1]; MT4 cells, HIV-1)	EC50 (HIV-2 [2]; MT4 cells, HIV-2)	CC50 (MT-4 cells; MT-4 cells)	EC50 (HIV-1 [3]; CEM cells, HIV-1)	EC50 (HIV-2 [4]; CEM cells, HIV-2)	EC50 (HIV-2 [5]; [8])	Selectivity CC50/EC50 × 10^3 (III-B strain of HIV-1)	EC50 (III-B strain of HIV-1)	CC50 (C8166 cells)
COC(=O)[C@H](C)NP(=O)(OC)OC[C@@H]1C=C[C@H](n2cc(C)c(=O)[nH]c2=O)O1 (some centres unmarked) [Compound 740]	25.4 µM	50.9 µM	> 250 µM	20 µM	50 µM	> 250 µM	> 250 µM									
COC(=O)[C@H](C)NP(=O)(OCC1OC(n2cc(C)c(=O)[nH]c2=O)CC1N=[N+]=[N-])Oc1cc(Cl)cc(Cl)c1 (stereo partly drawn) [Compound 550, 3′-Deoxy-3′-β-azidothymidine 5′-(3,5-dichlorophenylmethoxylalaninyl) phosphoramidate]								0.5 µM	1 µM	98 µM	1.4 µM	3 µM	12 µM			
Cc1cn(C2C=CC(COP(=O)(NC(Cc3ccccc3)C(=O)OCc3ccccc3)Oc3ccccc3)O2)c(=O)[nH]c1=O (centres unmarked) [Compound 877, 2′,3′-dideoxy-2′,3′-didehydrothymidine-5′-(phenyl N-methoxyglycinyl) phosphoramidate]				0.6 µM	0.6 µM	0.24 µM	44 µM							267 × 10^3	0.0003 µM	80 µM
COC(=O)C(CCSC)NP(=O)(OCC1C=CC(n2cc(C)c(=O)[nH]c2=O)O1)Oc1ccccc1 (centres unmarked) [Compound 867, 2′,3′-dideoxy-2′,3′-didehydrothymidine-5′-(phenyl N-methoxymethioninyl) phosphoramidate]	0.2 µM	0.4 µM	22 µM	0.6 µM	0.8 µM	0.34 µM	≥ 250 µM							>62.5 × 10^3	0.0016 µM	> 1000 µM
Cc1cn(C2C=CC(COP(=O)(NC(Cc3ccccc3)C(=O)OCc3ccccc3)Oc3ccccc3)O2)c(=O)[nH]c1=O (centres unmarked) [Compound 866, 2′,3′-dideoxy-2′,3′-didehydrothymidine-5′-(phenyl N-methoxyglycinyl) phosphoramidate]	1.3 µM	6.7 µM	≥ 250 µM	6 µM	6 µM	7 µM	≥ 250 µM							>1.25 × 10^3	0.8 µM	> 1000 µM
Cc1cn([C@H]2C=C[C@@H](COP(=O)(NC(Cc3ccccc3)C(=O)OC(C)(C)C)Oc3ccccc3)O2)c(=O)[nH]c1=O (some centres unmarked) [Compound 878, 2′,3′-dideoxy-2′,3′-didehydrothymidine-5′-(phenyl N-tert-butylphenylalaninyl) phosphoramidate]				2 µM	2 µM	0.65 µM	80 µM							0.9 × 10^3	0.16 µM	150 µM
COC(=O)C(C)NP(=O)(OCC1OC(n2cc(C)c(=O)[nH]c2=O)CC1N=[N+]=[N-])Oc1cccc(C(F)(F)F)c1 (stereo not drawn) [Compound 536, 3′-Deoxy-3′β-azidothymidine 5′-(m-trifluoromethylphenylmethoxylalaninyl) phosphoramidate]								0.45 µM	0.9 µM	104 µM	1 µM	2 µM	3 µM			
CCCOP(=O)(N[C@@H](C)C(=O)OC)OC[C@@H]1C=C[C@H](n2cc(C)c(=O)[nH]c2=O)O1 (some centres unmarked) [Compound 326]	36 µM	84 µM	> 250 µM	> 230 µM	> 230 µM	135 µM	≥ 250 µM									
CCCCCCOC(=O)[C@H](C)NP(=O)(OCC1C=CC(n2cc(C)c(=O)[nH]c2=O)O1)Oc1ccccc1 (some centres unmarked) [Compound 862, 2′,3′-dideoxy-2′,3′-didehydrothymidine 5′-(phenyl N-hexyloxyalaninyl) phosphoramidate]				0.06 µM	0.055 µM	0.033 µM	48 µM							417 × 10^3	0.0012 µM	500 µM
CCOP(=O)(N[C@@H](C)C(=O)OC)OC[C@@H]1C=C[C@H](n2cc(C)c(=O)[nH]c2=O)O1 (some centres unmarked) [Compound 564]	28.5 µM	62.6 µM	≥ 250 µM	> 48 µM	> 240 µM	> 48 µM	≥ 250 µM									
Cc1cn(C2CC(N=[N+]=[N-])C(CO)O2)c(=O)[nH]c1=O (centres unmarked) [Cpd 499]								0.9 µM	2.3 µM	> 250 µM	3 µM	4 µM	> 250 µM			
COC(=O)C(NP(=O)(OCC1C=CC(n2cc(C)c(=O)[nH]c2=O)O1)Oc1ccccc1)C(C)C (centres unmarked) [Compound 865, 2′,3′-dideoxy-2′,3′-didehydrothymidine-5′-(phenyl N-methoxyvalinyl) phosphoramidate]	3.6 µM	11.2 µM	≥ 250 µM	12.5 µM	12.5 µM	4 µM	> 250 µM							>1.25 × 10^3	0.8 µM	> 1000 µM
Cc1cn([C@H]2C=C[C@@H](COP(=O)(NC(C)C(=O)OC(C)(C)C)Oc3ccccc3)O2)c(=O)[nH]c1=O (some centres unmarked) [Compound 893, 2′,3′-dideoxy-2′,3′-didehydrothymidine 5′-(phenyl N-tButyloxyalaninyl) phosphoramidate]				0.85 µM	1.1 µM	0.74 µM	≥ 250 µM							>5.0 × 10^3	0.2 µM	> 1000 µM
COC(=O)[C@H](C)NP(=O)(OCC1OC(n2cc(C)c(=O)[nH]c2=O)CC1N=[N+]=[N-])Oc1ccccc1 (stereo partly drawn) [Compound 462, 3′-Deoxy-3′-β-azidothymidine 5′-(phenylmethoxylalaninyl) phosphoramidate]								33 µM	11 µM	121 µM	27.5 µM	40 µM	30 µM			
Cc1cn(C2C=CC(COP(=O)(Oc3ccc(Br)cc3Br)N(C)C(C)C(=O)O)O2)c(=O)[nH]c1=O (centres unmarked) [Compound 776, 2′,3′-dideoxy-2′,3′-didehydrothymidine-5′-(2,4-dibromophenyl N-methylalaninyl) phosphoramidate]				0.04 µM	0.055 µM	0.025 µM	16 µM							125 × 10^3	0.0008 µM	100 µM
COC(=O)C(Cc1ccccc1)NP(=O)(OCC1C=CC(n2cc(C)c(=O)[nH]c2=O)O1)OCC(Cl)(Cl)Cl (centres unmarked) [Compound 325]	0.44 µM	0.5 µM	> 100 µM	1 µM	2 µM	0.7 µM										

— patent US7018989B2, “Chemical compounds” (University College Cardiff Consultants, LTD, priority 1995, dated 2006)
